Assay results reported in US20230285347A1, “Preterm Labour with Prostaglandin E2 Receptor Agonists” (IMPERIAL COLLEGE INNOVATIONS LIMITED, priority 2020, published 2023).

What was measured:
β-adrenergic receptor = assay: cAMP signalling in myometrial cells from different labouring groups, β-adrenergic agonist; type: cell-based, human; conditions: isoproterenol 10 μM; all labouring groups; FIG. 8
Procedure: Myometrial cells from different labouring groups were treated with IBMX (5 minutes, 0.5 mM) before 1 minute stimulation with IBMX with/without butaprost (10 μM) or isoproterenol (10 μM). cAMP concentrations were normalised to protein. Data shown as mean±SEM, L−n=4. All other groups n=5. Each treatment compared to L− using one-way ANOVA with Dunnett's multiple comparison post-hoc test: **p<0.01, ***p<0.001, ****p<0.0001.

human FLAG-tagged EP2 = target: T1, human FLAG-tagged EP2 (Homo sapiens, UniProt P43116); assay: cAMP induction in HEK 293 cells stably expressing EP2 (Gαs readout); type: cell-based; conditions: HEK 293 EP2 cells; 5 minutes of stimulation; no significant difference between ligands; FIG. 2
T1 construct: FLAG; expressed in transfected cells
Procedure: EP2 is a dually coupled GPCR capable of activating downstream signalling pathways via Gαs (anti-labour inducing) and Gαq/11 (pro-labour inducing).
HEK 293 cells were maintained in DMEM (Dulbecco's Modified Eagle Medium) containing 10% fetal bovine serum and 100 μ/ml penicillin-streptomycin, and cultured in 75 cm flasks at 37° C. in 95% air and 5% CO2. Cells at 95% confluency were passaged using 0.25% trypsin with 0.02% EDTA in phosphate-buffered saline (PBS).
(§1) Confluent myometrial cells were treated with/without OT (100 nM) for 1 hour before 3 PBS washes and the addition of […] IBMX (3-isobutyl-1-methylxanthine) in PBS for 5 minutes at 37° C. This was exchanged for 0.5 μM IBMX in PBS plus either DMSO, butaprost (10 μM), AH13205 (10 μM) or PGN9856i (100 nM) for […]. Cells were lysed in Cisbio cAMP lysis buffer with 0.2% TritonX-100 and centrifuged for 15 minutes at 16,000 g. Lysates were normalized to protein concentration determined by Coomassie (Bradford) Protein Assay Kit and analysed as per manufacturers' protocol (Cisbio Gαs dynamic assay) using a PHERAstar FSX.

human FLAG-EP2 [1] = target: T2, human FLAG-EP2 (Homo sapiens, UniProt P43116); assay: Intracellular Ca2+ release in HEK 293 cells stably expressing EP2 (Fluo-4, confocal; Gαq/11 readout); type: cell-based; conditions: HEK 293 EP2 cells; butaprost 10 μM, AH13205 10 μM, PGN9856i 100 nM; vs vehicle; FIG. 3
T2 construct: FLAG; expressed in transfected cells
Procedure: To measure Gαq/11 activation, HEK 293 cells stably expressing human FLAG-EP2 were pre-labelled with a Ca2+ indicator dye and acutely stimulated with each ligand.
HEK 293 cells, prepared following the same methodology as outlined in Example 1, were seeded onto Mattek dishes with 14 mm by 1.5 mm glass coverslips. Cells were incubated with Fluo-4am Ca2+ indicator (ThermoFisher) as per manufacturer's instructions. […]. Time-series images were acquired using a Leica SP5 confocal microscope, Leica LAS AF image acquisition software and a 488 nm excitation laser. HEK cells were imaged using a 10× dry objective. EP2 agonists (butaprost 10 μM, AH13205 10 μM or PGN9856i 100 nM) were added following measurement of basal fluorescence. Raw files were analysed using Fiji Time series analyser plugin to find the maximal fluorescent intensity, which was then averaged across cells in each condition.
The maximal fluorescence intensity was measured by live confocal microscopy.

human FLAG-EP2 [2] = target: T2, human FLAG-EP2; assay: PGE2 release by ELISA in HEK 293 cells stably expressing EP2; type: cell-based; conditions: HEK 293 EP2 cells; 6 hours; butaprost 10 μM, AH13205 10 μM, PGN9856i 100 nM; FIG. 4
Procedure: COX-2 is an inflammatory mediator that drives PGE2 production. The inventors had previously shown EP2-dependent COX-2 release to be downstream of Ca2+ release in primary human myometrium and that 6-hour agonist treatment is necessary for increasing COX-2 levels and PGE2 secretion (Kandola et al, 2014). HEK 293 cells stably expressing human FLAG-EP2 were stimulated for 6 hours with an EP2 agonist (butaprost 10 μM, AH13205 10 μM or PGN9856i 100 nM) or DMSO. 1 mL media was collected from COX-2 experiments and immediately frozen at −80 degrees Celsius. […]

EP2 [3] = target: T3, EP2 (Homo sapiens, UniProt P43116); assay: Intracellular cAMP in primary human myocytes from term pregnant non-labouring myometrium; type: cell-based; conditions: butaprost 10 μM, AH13205 10 μM, PGN9856i 100 nM, FIG. 5
T3 construct: primary human myocytes cultured from term pregnant, non-labouring, myometrium; endogenous in cells; host or cells: primary human myometrial cells (myocytes) cultured from pregnant myometrium
Procedure: In the myometrium EP2 is an important regulator of parturition. To assess if PGN9856i, butaprost and AH13205 induce similar second messenger profiles in the myometrium as HEK 293 cells, primary human myocytes cultured from term pregnant, non-labouring, myometrium, were treated with each ligand and intracellular cAMP, calcium and PGE2 release was measured.
Myometrial tissue was acquired at St. Mary's hospital, Queen Charlotte and Chelsea hospital and Charing Cross hospital, London. Tissue was obtained from women provided with informed written consent with the approval from the Riverside Research Ethics Committee (RREC 3357, 1997-5089, 19/LO/1657) and experiments were carried out under the committee's guidelines and recommendations. Tissues were obtained from term (38+0-40 weeks gestation) pregnant women undergoing elective caesarean from the upper margin of the incision made at the lower segment of the uterus, before or after the onset of labor. Tissues taken from women in early labour (<3 cm cervical dilation) or late labour (>3 cm cervical dilation) with/without induction with syntocinon, an oxytocin analogue. Tissue was only taken from uncomplicated, singleton pregnancies.
Tissue was stored at 4° C. in phosphate buffered saline until fine dissection with scalpels and dissociation at 37° C. for 1 hour in a sterile-filtered mix of Dulbecco's modified Eagle's medium (DMEM) (Sigma Aldrich)/Ham's F-12 Nutrient Mixture (Sigma Aldrich) and serum-free DMEM (Sigma Aldrich) (1:1 v/v) containing collagenase 1A (Sigma Aldrich)(1 mg/ml), collagenase X (Sigma Aldrich)(1 mg/ml) and bovine serum albumin (Sigma Aldrich) (2 mg/ml). […]
Confluent myometrial cells were treated with/without OT (100 nM) for 1 hour before 3 PBS washes and the addition of […] IBMX (3-isobutyl-1-methylxanthine) in PBS for 5 minutes at 37° C. […] Lysates were normalized to protein concentration determined by Coomassie (Bradford) Protein Assay Kit and analysed as per manufacturers' protocol (Cisbio Gαs dynamic assay) using a PHERAstar FSX.

EP2 [4] = target: T3, EP2; assay: cAMP in non-labouring myometrial cells with/without oxytocin pre-treatment; type: cell-based; conditions: OT pre-treatment 1 hour, 100 nM; butaprost 10 μM, AH13205 10 μM, PGN9856i 100 nM; FIG. 10
Procedure: Myometrial cells with/without oxytocin (OT) pre-treatment (1 hour, 100 nM) were treated with IBMX (5 minutes, 0.5 mM) before 1 minute stimulation with IBMX with/without either DMSO, butaprost (10 μM), AH13205 (10 μM) or PGN9856i (100 nM). cAMP concentrations were normalised to protein. Each patient's data normalised to butaprost response and shown as mean±SEM, n=6. One-sample t-test: #p<0.05. ##p<0.01. One-way ANOVA with Sidak's multiple comparison post-hoc test: **p<0.01.
as §1

EP2 [5] = target: T3, EP2; assay: Intracellular calcium in myometrial cells with/without oxytocin pre-treatment; type: cell-based; conditions: OT pre-treatment 1 hour, 100 nM; butaprost 10 μM, AH13205 10 μM, PGN9856i 100 nM; FIG. 11
Procedure: Intracellular calcium response in myometrial cells with/without OT pre-treatment (1 hour, 100 nM) stimulated with butaprost (10 μM), AH13205 (10 μM) or PGN9856i (100 nM). Data are the mean of the maximum fluorescence intensity for each cell measured normalised to background (F-FO). Shown as fold-change over butaprost response. One-way ANOVA with Dunnett's multiple comparison post-hoc test: ##p<0.01. One-sample t-test: *p<0.05.

T3 sequence (P43116 whole entry): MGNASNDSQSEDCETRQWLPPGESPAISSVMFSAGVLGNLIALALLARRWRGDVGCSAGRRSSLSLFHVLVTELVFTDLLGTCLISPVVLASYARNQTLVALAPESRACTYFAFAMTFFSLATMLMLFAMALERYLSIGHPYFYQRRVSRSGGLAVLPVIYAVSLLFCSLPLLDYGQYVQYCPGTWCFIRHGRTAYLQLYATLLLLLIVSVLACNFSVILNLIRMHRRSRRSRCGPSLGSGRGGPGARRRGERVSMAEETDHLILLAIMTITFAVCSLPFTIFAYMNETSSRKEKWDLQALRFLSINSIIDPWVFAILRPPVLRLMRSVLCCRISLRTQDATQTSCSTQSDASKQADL
T2 sequence (P43116 whole entry): as above
T1 sequence (P43116 whole entry): as above

| cAMP efficacy at the maximal dose of each ligand (human FLAG-tagged EP2) | PGE2 levels (human FLAG-EP2 [2]) | effect of OTR activation on ligand's ability to increase intracellular cAMP (EP2 [4]) | Structure (SMILES) | agonist-induced cAMP signalling in labouring groups vs non-labouring (β-adrenergic receptor) | intracellular Ca2+ release (maximal fluorescence intensity) (human FLAG-EP2 [1]) | release of intracellular cAMP (EP2 [3]) | calcium response with OT pre-treatment (EP2 [5]) |
| --- | --- | --- | --- | --- | --- | --- | --- |
| – | – | – | CC(C)NCC(O)c1ccc(O)c(O)c1 (stereo not shown) [isoproterenol] | but not isoproterenol-induced cAMP signalling, was significantly attenuated | – | – | – |
| equally efficacious | efficacious activators of the pathway | significantly reduced | CCCCCC(O)c1ccc(C2CCC(=O)C2CCCCCCC(=O)O)cc1 (stereo not shown) [AH13205] | – | enhanced Ca2+ significantly above vehicle | able to elicit release of intracellular cAMP | significantly enhance the calcium response |
